Experimental data as given in DBAASP.
Converted amounts (≈) assume the structure as drawn. “And” between values parts separate entries of the source, which are not always exact repeats. Equal values may be shown once.

Assays:
Assay in all cases: ≥ marks a high value that may be exact or a test limit, other limits are often not marked, values filed in µg/mL are converted to µM
Staphylococcus xylosus = test system: Staphylococcus xylosus
Salmonella enterica = test system: Salmonella enterica
Escherichia coli BL21 = test system: Escherichia coli BL21
Citrobacter koseri = test system: Citrobacter koseri
Escherichia coli JM109 = test system: Escherichia coli JM109
[1] = test system: Streptococcus alactolyticus
Pseudomonas aeruginosa = test system: Pseudomonas aeruginosa
[2] = test system: Staphylococcus aureus CCRC 12652
[3] = test system: Staphylococcus aureus CCRC 15211
[4] = test system: Vibrio parahaemolyticus CCRC 10806
[5] = test system: Klebsiella pneumoniae CCRC 10694
[6] = test system: Salmonella typhimurium CCRC 12947
[7] = test system: Pseudomonas aeruginosa NCTC 13437
Klebsiella pneumoniae M6 = test system: Klebsiella pneumoniae M6
[8] = test system: Klebsiella pneumoniae NCTC 13368
[9] = test system: Acinetobacter baumannii ATCC 17978
[10] = test system: Staphylococcus aureus NCTC 6571
[11] = test system: Candida albicans NCPF 3179
[12] = test system: Pseudomonas aeruginosa PAO1
[13] = test system: Enterococcus faecalis NCTC 12201
[14] = test system: Enterococcus faecalis NCTC 775
[15] = test system: Acinetobacter baumannii AYE
[16] = test system: Staphylococcus aureus NCTC 13616
[17] = test system: Staphylococcus aureus NCTC 13277
[18] = test system: Staphylococcus aureus A170
[19] = test system: Staphylococcus epidermidis
Candida tropicalis = test system: Candida tropicalis
[20] = test system: Enterococcus faecium ATCC 19434
[21] = test system: Staphylococcus aureus ATCC 502A
[22] = test system: Pseudomonas sp. ATCC 15915
[23] = test system: Acinetobacter baumannii ATCC 15308
[24] = test system: Micrococcus luteus ATCC 7468
Escherichia coli BL2 = test system: Escherichia coli BL2
Priestia flexa = test system: Priestia flexa
Escherichia coli = test system: Escherichia coli
[25] = test system: Bacillus cereus ATCC 14579
Enterobacter sp. = test system: Enterobacter sp.
Bacillus anthracis = test system: Bacillus anthracis
[26] = test system: Klebsiella pneumoniae ATCC 700603
Staphylococcus aureus = test system: Staphylococcus aureus
[27] = test system: Escherichia coli ATCC 25922
[28] = test system: Lactococcus lactis ATCC 11454
[29] = test system: Staphylococcus aureus ATCC 25923
[30] = test system: Bacillus subtilis ATCC 6633
Bacillus subtilis = test system: Bacillus subtilis
Bacillus licheniformis = test system: Bacillus licheniformis
[31] = test system: Lactiplantibacillus plantarum ATCC 8014
[32] = test system: Salmonella enterica subsp. enterica serovar Enteritidis ATCC 13076
Serratia marcescens = test system: Serratia marcescens

Structure (SMILES): CC[C@H](C)[C@H](N)C(=O)N[C@@H](CC(N)=O)C(=O)N[C@@H](CC(C)C)C(=O)N[C@@H](CCCCN)C(=O)N[C@@H](C)C(=O)N[C@H](C(=O)N[C@@H](C)C(=O)N[C@@H](C)C(=O)N[C@@H](Cc1ccccc1)C(=O)N[C@@H](C)C(=O)N[C@@H](CCCCN)C(=O)N[C@@H](CCCCN)C(=O)N[C@@H](CC(C)C)C(=O)N[C@@H](CC(C)C)C(N)=O)[C@@H](C)CC [INLKAIAAFAKKLL]
- MIC (Staphylococcus xylosus): 1.32 µM (≈ 2 µg/mL)
- MIC (Salmonella enterica): 10.6 µM (≈ 16 µg/mL)
- MIC (Escherichia coli BL21): 5.28 µM (≈ 7.99 µg/mL)
- MIC (Citrobacter koseri): 2.64 µM (≈ 4 µg/mL)
- MIC (Escherichia coli JM109): 5.28 µM (≈ 7.99 µg/mL)
- MIC [1]: 10.6 µM (≈ 16 µg/mL)
- MIC (Pseudomonas aeruginosa): 84.5 µM (≈ 128 µg/mL)
- MIC [2]: 15.9 µM (≈ 24 µg/mL)
- MIC [3]: 21.1 µM (≈ 32 µg/mL)
- MIC [4]: 21.1 µM (≈ 32 µg/mL)
- MIC [5]: 21.1 µM (≈ 32 µg/mL)
- MIC [6]: 21.1 µM (≈ 32 µg/mL)

Structure (SMILES): CC[C@H](C)[C@H](NC(=O)[C@@H]1CCCN1C(=O)[C@H](CC(C)C)NC(=O)[C@H](CC(C)C)NC(=O)[C@H](CCCCN)NC(=O)[C@@H](N)CCCCN)C(=O)N[C@H](C(=O)N[C@@H](C)C(=O)N[C@@H](CC(N)=O)C(=O)N[C@@H](CC(C)C)C(=O)N[C@@H](CC(C)C)C(=O)N[C@@H](CCCCN)C(=O)N[C@@H](CO)C(=O)N[C@@H](CC(C)C)C(=O)N[C@@H](CC(C)C)C(N)=O)C(C)C [KKLLPIVANLLKSLL]
- MIC [7]: ≥ 77 µM
- MIC (Klebsiella pneumoniae M6): ≥ 77 µM
- MIC [8]: ≥ 77 µM
- MIC [9]: 19.2 µM and ≥ 38.5 µM
- MIC [10]: ≥ 77 µM
- MIC [11]: ≥ 77 µM
- MIC [12]: > 77 µM
- MIC [13]: ≥ 77 µM
- MIC [14]: ≥ 77 µM
- MIC [15]: 19.2 µM and ≥ 38.5 µM
- MIC [16]: ≥ 77 µM
- MIC [17]: ≥ 77 µM

Structure (SMILES): CC[C@H](C)[C@H](NC(=O)[C@@H]1CCCN1C(=O)[C@H](CC(C)C)NC(=O)[C@@H](N)CC(C)C)C(=O)N[C@H](C(=O)N[C@@H](C)C(=O)N[C@@H](CC(N)=O)C(=O)N[C@@H](CC(C)C)C(=O)N[C@@H](CC(C)C)C(=O)N[C@@H](CCCCN)C(=O)N[C@@H](CO)C(=O)N[C@@H](CC(C)C)C(=O)N[C@@H](CC(C)C)C(=O)O)C(C)C [LLPIVANLLKSLL]
- MIC [18]: 3.55 µM (≈ 5 µg/mL)
- MIC [19]: 7.11 µM (≈ 10 µg/mL)

Structure (SMILES): CSCC[C@H](NC(=O)[C@@H](N)CC(C)C)C(=O)N[C@H]1CSSC[C@@H](C(=O)N[C@@H](CO)C(=O)N[C@@H](CC(N)=O)C(=O)O)NC(=O)[C@H](CC(=O)O)NC(=O)[C@H](CC(C)C)NC(=O)[C@@H]2CCCN2C(=O)[C@H](Cc2cnc[nH]2)NC(=O)[C@H]([C@@H](C)O)NC1=O [LMCTHPLDCSN]
- MIC (Candida tropicalis): 25.9 µM (≈ 31.9 µg/mL)

Structure (SMILES): CC[C@H](C)[C@H](NC(=O)[C@H](C)NC(=O)[C@H](Cc1ccccc1)NC(=O)[C@H](Cc1c[nH]c2ccccc12)NC(=O)[C@H](CCC(N)=O)NC(=O)[C@H](C)NC(=O)[C@H](CCCN=C(N)N)NC(=O)[C@@H](NC(=O)[C@H](Cc1ccccc1)NC(=O)[C@H](CCC(N)=O)NC(=O)[C@@H]1CCCN1C(=O)[C@@H]1CCCN1C(=O)[C@@H](N)CCCN=C(N)N)[C@@H](C)O)C(=O)N[C@@H](CCC(N)=O)C(=O)N[C@@H](Cc1cnc[nH]1)C(=O)N[C@H](C(=O)N[C@@H](CO)C(=O)N[C@@H](CC(C)C)C(=O)N[C@@H](CC(N)=O)C(=O)O)[C@@H](C)CC [RPPQFTRAQWFAIQHISLN]
- MIC [20]: 10 µM (≈ 23.1 µg/mL)
- MIC [21]: 10 µM (≈ 23.1 µg/mL)
- MIC [22]: 10 µM (≈ 23.1 µg/mL)
- MIC [23]: 10 µM (≈ 23.1 µg/mL)
- MIC [24]: 10 µM (≈ 23.1 µg/mL)
- MIC (Escherichia coli BL2): 10 µM (≈ 23.1 µg/mL)

Structure (SMILES): CC(C)C[C@H](NC(=O)[C@@H](NC(=O)[C@H](CO)NC(=O)[C@H](CC(C)C)NC(=O)[C@@H]1CCCN1C(=O)[C@H](CC(C)C)NC(=O)[C@H](CO)NC(=O)[C@H](CCCCN)NC(=O)[C@H](CO)NC(=O)[C@@H](N)Cc1ccc(O)cc1)C(C)C)C(=O)N[C@@H](CC(N)=O)C(=O)N1CCC[C@H]1C(=O)O [YSKSLPLSVLNP]
- MIC (Priestia flexa): 24.3 µM (≈ 32 µg/mL)
- MIC (Escherichia coli): 6.07 µM (≈ 8 µg/mL)
- MIC [25]: ≥ 48.6 µM
- MIC (Enterobacter sp.): 12.1 µM (≈ 16 µg/mL)
- MIC (Bacillus anthracis): ≥ 97.2 µM
- MIC [26]: 12.1 µM (≈ 16 µg/mL)
- MIC (Staphylococcus aureus): 48.6 µM (≈ 64 µg/mL)
- MIC [27]: 6.07 µM (≈ 8 µg/mL)
- MIC [28]: ≥ 97.2 µM
- MIC [29]: 24.3 µM (≈ 32 µg/mL)
- MIC [30]: 12.1 µM (≈ 16 µg/mL)
- MIC (Bacillus subtilis): 24.3 µM (≈ 32 µg/mL)
- MIC (Bacillus licheniformis): ≥ 97.2 µM
- MIC [31]: 24.3 µM (≈ 32 µg/mL)
- MIC [32]: 3.04 µM (≈ 4 µg/mL)
- MIC (Serratia marcescens): 24.3 µM (≈ 32 µg/mL)
